Measured values: patent publication US9458095B2, “Oligo-benzamide compounds and their use in treating cancers” (The Board of Regents of the University of Texas System, priority 2011, dated 2016)

Assays:
[1] = system: ARE activity in CWR22v1 cells (ARwt and ARv7); test: ARE-luciferase reporter in CWR22v1 cells; format: cell-based; conditions: 10 μM casodex or MDV3100, 48 h, without androgen (EtOH)
Procedure: FIG. 4. Effect of T6 on basal level of ARE expression in CWR22v1 cells. CWR22v1 cells were transiently transfected with ARE-luciferase. Cells were maintained for 48 h without (EtOH) and in the presence of 100 nM of peptidomimetic or volume equivalent of vehicle (DMSO) control or 10 μM of casodex or MDV3100.

[2] = system: ARv7 regulated genes; test: Q-PCR of ARv7 regulated genes; format: cell-based; conditions: data not shown
Description: Finally, confirmation of the role of T6 in modulating ARv7 driven transcription was obtained by evaluation of the gene expression of ARv7 regulated genes.

[3] = system: IOMM-LEE; test: Growth inhibition of meningioma cell line IOMM-LEE; format: cell-based
Procedure: (§1) FIGS. 10A-B. Testing of oligo-benzamide (TK 11) for growth inhibitor of two meningioma brain cancer cell lines. (FIG. 10A) Results for cell line CH157. (FIG. 10B) Results for cell line IOMM-LEE.
(§2) Cell proliferation rates were measured by using MTT Cell Viability Assay in 96-well micro plates. Model cells were seeded in 96-well plates (2×10^3 cells/well) in DMEM or RPMI medium containing 10% serum. After an overnight incubation, cells were treated with varying concentrations of oligo-benzamides for 72 h and growth inhibition was determined by using traditional MTT assay (Sigma) following manufacturer's instructions.

[4] = system: IOSE immortalized normal ovarian cells; test: Growth of normal ovarian cells; format: cell-based
Procedure: FIG. 11. Testing of oligo-benzamides on growth of normal ovarian cells. IOSE are immortalized normal ovarian cells.
as §2

[5] = system: ovarian cancer cell line; test: Growth inhibition of ovarian cell lines (MTT); format: cell-based; conditions: 72 h
Procedure: FIG. 7. Testing of oligo-benzamides for growth inhibition of ovarian cell lines.
Human Breast cancer cells MCF7, ZR75, glioma cells U87, T98G, LN229, and the ovarian cancer cell line SKOV3 were obtained from the American Type Culture Collection (ATCC) and were maintained using ATCC recommended media.
as §2

[6] = system: U87; test: Growth inhibition of brain cancer cell line U87 (MTT); format: cell-based, Human; conditions: 72 h
Procedure: (§3) FIGS. 8A-B. Testing of oligo-benzamides for growth inhibitor of two brain cancer cell lines. (FIG. 8A) Results for cell line U87. (FIG. 8B) Results for cell line LN229. […] Human Breast cancer cells MCF7, ZR75, glioma cells U87, T98G, LN229, and the ovarian cancer cell line SKOV3 were obtained from the American Type Culture Collection (ATCC) and were maintained using ATCC recommended media. Cell proliferation rates were measured by using MTT Cell Viability Assay in 96-well micro plates. Model cells were seeded in 96-well plates (2×10^3 cells/well) in DMEM or RPMI medium containing 10% serum. After an overnight incubation, cells were treated with varying concentrations of oligo-benzamides for 72 h and growth inhibition was determined by using traditional MTT assay (Sigma) following manufacturer's instructions.

[7] = system: prostate cancer cell line; test: Growth inhibition of prostate cancer cell line; format: cell-based
[8] = system: triple negative breast cancer cell line; test: Growth inhibition of breast cell lines (MTT); format: cell-based; conditions: 72 h
Procedure: FIG. 6. Testing of oligo-benzamides for growth inhibition of breast cell lines.
as §2

[9] = system: Tamoxifen therapy resistant MCF7-HER2 and MCF7-TAM cells; test: Therapy resistance assay (MTT), hormonal therapy resistant cells; format: cell-based, Human; conditions: tamoxifen (10^-7M) containing media, P<0.05
Procedure: FIG. 13. Testing of oligo-benzamides for growth inhibition of hormonal therapy resistant cells.
Tamoxifen (Tam) therapy resistant MCF7-HER2 and MCF7-TAM cells were cultured in tamoxifen (10^-7M) containing media in the presence or absence of TK11 and proliferation was measured by MTT assay (Sigma) following manufacturer's instructions.

[10] = system: CH157; test: Growth inhibition of meningioma cell line CH157; format: cell-based
Procedure: as §1, §2

[11] = system: LN229; test: Growth inhibition of brain cancer cell line LN229 (MTT); format: cell-based, Human; conditions: 72 h
Procedure: as §3

[12] = target: T1, PELP1 interaction with estrogen receptor (Homo sapiens, UniProt P03372); test: PELP1-ER interaction, GST pull down assay; format: binding; conditions: TK11 500 nM, purified ER, GST-PELP1, E2
T1 construct: purchased
T1 sequence (P03372 1-595): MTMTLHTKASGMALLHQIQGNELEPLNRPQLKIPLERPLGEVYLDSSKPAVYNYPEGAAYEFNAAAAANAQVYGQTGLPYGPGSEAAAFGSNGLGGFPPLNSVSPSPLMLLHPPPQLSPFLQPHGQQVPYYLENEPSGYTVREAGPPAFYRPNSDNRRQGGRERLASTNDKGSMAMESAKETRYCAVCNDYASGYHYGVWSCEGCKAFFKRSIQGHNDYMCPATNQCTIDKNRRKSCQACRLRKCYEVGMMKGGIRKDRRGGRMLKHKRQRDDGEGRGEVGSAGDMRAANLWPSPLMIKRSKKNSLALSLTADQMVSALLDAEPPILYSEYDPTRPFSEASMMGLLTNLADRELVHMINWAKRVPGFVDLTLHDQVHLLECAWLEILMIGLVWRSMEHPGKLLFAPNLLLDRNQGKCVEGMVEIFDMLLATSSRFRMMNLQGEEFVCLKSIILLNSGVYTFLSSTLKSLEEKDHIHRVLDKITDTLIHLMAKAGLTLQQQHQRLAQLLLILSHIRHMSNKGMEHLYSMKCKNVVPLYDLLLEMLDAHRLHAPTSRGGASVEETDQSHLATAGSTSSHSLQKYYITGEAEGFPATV
Procedure: FIGS. 12A-C. Testing of oligo-benzamides for growth inhibition of estrogen driven proliferation. (FIG. 12A) Structure of peptidomimetics used in the assays. (FIG. 12B) Effect of tribenzamimetics on E2 driven proliferation using ZR75 model cells. (FIG. 12C) Effect of tribenzamides on PELP1-ER interaction. *, P<0.05.
Purified commercially available estrogen receptor (ER) was incubated with biotin-con or biotin-TK11 peptidomimetic in the presence of estrogen (E2). TK11 interaction with ER was determined using avidin immunoprecipitation (IP) followed by western blotting. For some experiments, MCF-7 cells were stimulated with estrogen (E2), nuclear lysates were prepared and incubated with biotin-con or biotin-TK11 peptidomimetic. TK11 interactions with endogenous ER were analyzed by avidin IP. For some experiments, purified ER, GST-PELP1 was incubated in the presence of E2 and ability of control or TK11 (500 nM) to compete PELP1 interaction with ER was determined GST pull down assay.

Compound | basal ARE activity in CWR22v1 cells [1] | expression of a panel of ARv7 regulated genes (Q-PCR) [2] | growth inhibition, meningioma cell line IOMM-LEE (specificity versus prostate cancer cell line) [3] | potency in inhibiting growth of normal ovarian cells (IOSE) [4] | growth inhibition, ovarian cancer cell line [5] | growth inhibition, brain cancer cell line U87 [6] | potency in inhibiting prostate cancer cell line [7] | growth inhibition, triple negative breast cancer cell line [8] | growth of hormonal therapy resistant cells [9] | growth inhibition, meningioma cell line CH157 (specificity versus prostate cancer cell line) [10] | growth inhibition, brain cancer cell line LN229 [11] | blocking PELP1 oncogene interactions with estrogen receptor [12]
CNC(=O)c1ccc(N2C(=S)N(c3ccc(C#N)c(C(F)(F)F)c3)C(=O)C2(C)C)cc1F [MDV3100, reference compound] | neither casodex nor MDV3100 could significantly affect | could not affect | – | – | – | – | – | – | – | – | – | –
CC(C)COc1cc(C(N)=O)ccc1NC(=O)c1ccc(NC(=O)c2ccc([N+](=O)[O-])c(OCCO)c2)c(OCC(C)C)c1 [TK11] | – | – | higher specificity | weak potency | high potency | high potency | weak potency | high potencies | significantly inhibited | higher specificity | high potency | very efficient in blocking
CC(O)(CS(=O)(=O)c1ccc(F)cc1)C(=O)Nc1ccc(C#N)c(C(F)(F)F)c1 (centres unmarked) [casodex, reference compound] | neither casodex nor MDV3100 could significantly affect | could not affect | – | – | – | – | – | – | – | – | – | –
